Laboratory results reported in ChEMBL document CHEMBL1201862, “PubChem BioAssay data set” (2004).
The source made the active and inactive calls.

Columns and labels:
[1] = molecular target: T1, Tyrosine-protein phosphatase non-receptor type 22 (Homo sapiens, UniProt Q9Y2R2); test: SAR LYP1 Fluorescent Assay using OMFP substrate for In Vitro dose response studies - Set 3. [Related pubchem assays (depositor defined):AID1779, AID1784, AID2140, AID2686]; format: functional
T1 sequence (Q9Y2R2 whole entry): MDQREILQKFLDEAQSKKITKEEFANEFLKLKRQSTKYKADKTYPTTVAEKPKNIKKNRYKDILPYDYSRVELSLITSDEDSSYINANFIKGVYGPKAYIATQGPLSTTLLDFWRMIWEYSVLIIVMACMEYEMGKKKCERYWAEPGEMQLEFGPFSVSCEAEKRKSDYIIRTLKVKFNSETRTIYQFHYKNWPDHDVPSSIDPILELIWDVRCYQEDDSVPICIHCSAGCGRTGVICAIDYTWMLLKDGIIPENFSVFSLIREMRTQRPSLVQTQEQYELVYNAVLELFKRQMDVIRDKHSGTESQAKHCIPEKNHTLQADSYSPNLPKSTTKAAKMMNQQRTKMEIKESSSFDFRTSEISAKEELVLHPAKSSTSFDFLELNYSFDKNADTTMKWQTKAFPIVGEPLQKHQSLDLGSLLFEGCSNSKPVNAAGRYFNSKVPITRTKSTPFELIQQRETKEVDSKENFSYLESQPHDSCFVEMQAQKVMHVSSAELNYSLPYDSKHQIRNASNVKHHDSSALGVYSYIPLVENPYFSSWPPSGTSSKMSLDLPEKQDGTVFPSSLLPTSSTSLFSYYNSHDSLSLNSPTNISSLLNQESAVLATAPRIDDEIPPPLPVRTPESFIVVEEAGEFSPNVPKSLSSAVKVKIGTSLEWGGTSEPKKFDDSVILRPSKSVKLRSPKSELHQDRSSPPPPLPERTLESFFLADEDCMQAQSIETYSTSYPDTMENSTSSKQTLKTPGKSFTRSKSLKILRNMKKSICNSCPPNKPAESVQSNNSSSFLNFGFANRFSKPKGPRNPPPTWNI

[2] = molecular target: T1, Tyrosine-protein phosphatase non-receptor type 22; test: SAR LYP1 Fluorescent Assay using OMFP substrate for In Vitro dose response studies - Set 2. [Related pubchem assays (depositor defined):AID1779, AID1784, AID2140, AID449726, AID488869]; format: functional
[3] = molecular target: Tyrosine-protein phosphatase non-receptor type 12 (Homo sapiens, UniProt Q05209); test: SAR Selectivity Analysis of small molecule inhibitors of PEST using pCAP in a fluorescence assay. [Related pubchem assays (depositor defined):AID1779, AID1784, AID2135]; format: functional
Tyrosine-protein phosphatase non-receptor type 12, sequence (Q05209 whole entry): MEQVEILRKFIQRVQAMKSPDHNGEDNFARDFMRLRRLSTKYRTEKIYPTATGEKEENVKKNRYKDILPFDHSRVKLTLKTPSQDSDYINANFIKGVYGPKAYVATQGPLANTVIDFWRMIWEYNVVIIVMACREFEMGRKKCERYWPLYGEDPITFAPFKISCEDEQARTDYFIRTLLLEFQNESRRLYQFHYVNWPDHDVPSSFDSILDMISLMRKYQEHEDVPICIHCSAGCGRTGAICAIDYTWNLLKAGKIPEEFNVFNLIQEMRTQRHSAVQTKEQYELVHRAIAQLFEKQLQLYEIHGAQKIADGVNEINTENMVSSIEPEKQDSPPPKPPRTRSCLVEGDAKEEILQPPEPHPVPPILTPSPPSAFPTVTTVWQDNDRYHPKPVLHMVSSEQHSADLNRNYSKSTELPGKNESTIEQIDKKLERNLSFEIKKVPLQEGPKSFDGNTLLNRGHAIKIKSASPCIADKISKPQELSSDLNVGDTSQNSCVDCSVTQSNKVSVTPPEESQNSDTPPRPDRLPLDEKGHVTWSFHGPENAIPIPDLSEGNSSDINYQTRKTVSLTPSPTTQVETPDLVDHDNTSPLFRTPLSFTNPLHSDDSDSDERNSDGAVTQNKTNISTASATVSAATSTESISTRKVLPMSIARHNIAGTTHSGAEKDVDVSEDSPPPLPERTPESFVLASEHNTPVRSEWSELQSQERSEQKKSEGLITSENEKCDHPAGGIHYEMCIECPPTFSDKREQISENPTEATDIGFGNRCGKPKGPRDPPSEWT

[4] = molecular target: T1, Tyrosine-protein phosphatase non-receptor type 22; test: LYP (PTPN22) phosphatase inhibitor potency, SAR follow-up, biochemical, pCAP fluorogenic substrate, fluorescence, set 3 (AID 449727); format: functional
[5] = molecular target: T2, Tyrosine-protein phosphatase non-receptor type 7 (Homo sapiens, UniProt P35236); test: HePTP (PTPN7) phosphatase inhibitor potency, SAR follow-up, biochemical, set 2 (AID 449736); format: functional
T2 sequence (P35236 whole entry): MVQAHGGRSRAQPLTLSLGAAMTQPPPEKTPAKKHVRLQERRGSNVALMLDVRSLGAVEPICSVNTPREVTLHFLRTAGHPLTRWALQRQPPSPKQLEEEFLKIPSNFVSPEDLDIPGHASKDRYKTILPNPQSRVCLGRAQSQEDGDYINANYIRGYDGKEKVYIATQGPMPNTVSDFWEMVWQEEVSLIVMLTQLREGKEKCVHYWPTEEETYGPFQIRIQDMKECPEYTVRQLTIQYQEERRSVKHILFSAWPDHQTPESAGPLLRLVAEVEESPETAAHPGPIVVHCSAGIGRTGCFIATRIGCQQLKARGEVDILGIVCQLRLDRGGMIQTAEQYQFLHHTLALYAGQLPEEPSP

[6] = molecular target: T1, Tyrosine-protein phosphatase non-receptor type 22; test: SAR LYP1 Fluorescent Assay using pCAP substrate for In Vitro dose response studies - Set 2. [Related pubchem assays (depositor defined):AID1779, AID1784, AID2135, AID449727]; format: functional
[7] = molecular target: T3, Runt-related transcription factor 1/Core-binding factor subunit beta (Homo sapiens, UniProt Q01196+Q13951); test: inhibitors of RUNX1 Runt–CBFb-SMMHC binding, biochemical, TR-FRET (AID 1438); format: protein assay
T3 sequence (Q01196 whole entry, the tested form may be a part): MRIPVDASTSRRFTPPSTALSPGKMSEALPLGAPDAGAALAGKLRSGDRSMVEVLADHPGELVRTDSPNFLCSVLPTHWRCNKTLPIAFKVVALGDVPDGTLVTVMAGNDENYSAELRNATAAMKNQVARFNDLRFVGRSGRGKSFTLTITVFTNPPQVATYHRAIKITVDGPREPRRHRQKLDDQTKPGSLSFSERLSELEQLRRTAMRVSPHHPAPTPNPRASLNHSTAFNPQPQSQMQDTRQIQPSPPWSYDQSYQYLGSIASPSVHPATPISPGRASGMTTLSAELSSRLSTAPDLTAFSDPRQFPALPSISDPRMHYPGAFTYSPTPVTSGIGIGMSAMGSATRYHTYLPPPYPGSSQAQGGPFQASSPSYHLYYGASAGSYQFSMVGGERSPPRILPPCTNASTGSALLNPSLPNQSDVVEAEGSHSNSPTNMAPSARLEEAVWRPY
T3 sequence (Q13951 whole entry, the tested form may be a part): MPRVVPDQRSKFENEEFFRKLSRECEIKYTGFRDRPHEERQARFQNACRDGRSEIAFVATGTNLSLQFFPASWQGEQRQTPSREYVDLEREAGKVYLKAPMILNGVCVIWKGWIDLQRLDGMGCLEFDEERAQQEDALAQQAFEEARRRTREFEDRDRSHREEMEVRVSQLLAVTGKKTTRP

[8] = molecular target: T3, Runt-related transcription factor 1/Core-binding factor subunit beta; test: inhibitors of RUNX1 Runt–CBFb-SMMHC binding, primary screen, biochemical, FRET, Cerulean-Runt, Venus-CBFb-SMMHC, uHTS (AID 1434); format: protein assay;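 note: partner is the CBFb-SMMHC leukemia fusion protein rather than wild-type CBFb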
[9] = molecular target: T4, E3 ubiquitin-protein ligase XIAP (Homo sapiens, UniProt P98170); test: XIAP antagonists, biochemical, IAP family, fluorescence polarization (AID 1018); format: functional
T4 sequence (P98170 whole entry): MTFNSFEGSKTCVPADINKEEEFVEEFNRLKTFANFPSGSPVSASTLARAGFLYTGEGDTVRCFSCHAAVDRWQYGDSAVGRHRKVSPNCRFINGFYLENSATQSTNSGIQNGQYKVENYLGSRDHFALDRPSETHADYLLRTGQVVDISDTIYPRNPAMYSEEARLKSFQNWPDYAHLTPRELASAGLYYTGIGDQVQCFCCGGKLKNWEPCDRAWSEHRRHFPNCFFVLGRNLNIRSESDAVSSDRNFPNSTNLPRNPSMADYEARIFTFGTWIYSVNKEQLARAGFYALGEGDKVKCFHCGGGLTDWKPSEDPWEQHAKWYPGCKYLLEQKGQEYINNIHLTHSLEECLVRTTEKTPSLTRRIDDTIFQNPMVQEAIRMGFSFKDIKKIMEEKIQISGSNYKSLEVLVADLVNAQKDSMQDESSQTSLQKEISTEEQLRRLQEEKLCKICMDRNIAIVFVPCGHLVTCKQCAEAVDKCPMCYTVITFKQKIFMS

[10] = molecular target: T4, E3 ubiquitin-protein ligase XIAP; test: Counter Screen using XIAP-Bir3 for Chemical Antagonists of Bir1/2 domains of IAP-family anti-apoptotic proteins. [Related pubchem assays (depositor defined):AID1018, AID1449, AID1514, AID1638, AID1749, AID1750, AID488957, AID488963]
X-box-binding protein 1 = X-box-binding protein 1 (Homo sapiens, UniProt P17861); format: functional, Cricetulus griseus;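 note: confirmatory dose-response counter-screen serving a CHOP assay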
X-box-binding protein 1, sequence (P17861 whole entry): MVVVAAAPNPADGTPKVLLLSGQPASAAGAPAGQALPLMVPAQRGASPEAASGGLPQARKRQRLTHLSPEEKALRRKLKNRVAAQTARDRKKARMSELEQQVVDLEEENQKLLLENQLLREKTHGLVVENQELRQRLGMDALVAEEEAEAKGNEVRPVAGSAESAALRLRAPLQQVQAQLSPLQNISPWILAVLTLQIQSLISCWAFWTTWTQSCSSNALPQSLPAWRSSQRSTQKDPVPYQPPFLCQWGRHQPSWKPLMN

[11] = molecular target: DNA damage-inducible transcript 3 protein (Mus musculus, UniProt P35639); format: functional, Cricetulus griseus
DNA damage-inducible transcript 3 protein, sequence (P35639 whole entry): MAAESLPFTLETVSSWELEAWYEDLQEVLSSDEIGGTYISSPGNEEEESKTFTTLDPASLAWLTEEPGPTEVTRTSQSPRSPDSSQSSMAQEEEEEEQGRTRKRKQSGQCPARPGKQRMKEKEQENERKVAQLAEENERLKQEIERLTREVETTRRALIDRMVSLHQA

## COc1ccccc1NS(=O)(=O)c1cccc(C(=O)NN=Cc2ccc(OCC(=O)O)cc2)c1
[1]
  IC50: > 100 µM (inactive)
[2]
  IC50: > 100 µM (inactive)
[3]
  IC50: > 100 µM (inactive)
[4]
  IC50: > 100 µM (inactive)
[5]
  IC50: > 100 µM (inactive)
[6]
  IC50: > 100 µM (inactive)

## N=c1c(C(=O)NCc2ccc(F)cc2)cc2c(=O)n3ccccc3nc2n1Cc1ccco1
[7]
  IC50: 43.5 µM (active)
[8]
  IC50: 3.78 µM (active)

## CC(C)CNS(=O)(=O)c1ccc(CCC(=O)N2CCN(Cc3ccccc3)CC2)cc1
[9]
  IC50: > 100 µM (not active)
[10]
  IC50: > 100 µM (inactive)

## COc1cccc(Nc2ncnc3c2cnn3-c2cccc(C)c2)c1
X-box-binding protein 1
  Absolute IC50 (XBP1): 10 µM
[11]
  Absolute IC50 (CHOP): 10 µM
